# Measured values published in PubChem BioAssay (NCI).
#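 Interpolation was linear, between the two tested concentrations surrounding the appropriate level; five concentrations were tested over 48 hours in 96-well plates. GI50: concentration for 50% inhibition of growth. TGI denotes the concentration required for complete inhibition of growth.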
# Experiments:
# Experiment in all cases: inhibition of tumour cell growth, NCI panel, 48 h
# 786-0 renal = tested on: 786-0 renal
# A498 renal = tested on: A498 renal
# A549 NSCLC = tested on: A549 NSCLC
# ACHN renal = tested on: ACHN renal
# BT-549 breast = tested on: BT-549 breast
# CAKI-1 renal = tested on: CAKI-1 renal
# CCRF-CEM leukemia = tested on: CCRF-CEM leukemia
# COLO 205 colon = tested on: COLO 205 colon
# DU-145 prostate = tested on: DU-145 prostate
# EKVX NSCLC = tested on: EKVX NSCLC
# HCC-2998 colon = tested on: HCC-2998 colon
# HCT-116 colon = tested on: HCT-116 colon
# HCT-15 colon = tested on: HCT-15 colon
# HL-60(TB) leukemia = tested on: HL-60(TB) leukemia
# HOP-62 NSCLC = tested on: HOP-62 NSCLC
# HOP-92 NSCLC = tested on: HOP-92 NSCLC
# HS 578T breast = tested on: HS 578T breast
# HT29 colon = tested on: HT29 colon
# IGROV1 ovarian = tested on: IGROV1 ovarian
# K-562 leukemia = tested on: K-562 leukemia
# KM12 colon = tested on: KM12 colon
# LOX IMVI melanoma = tested on: LOX IMVI melanoma
# M14 melanoma = tested on: M14 melanoma
# MALME-3M melanoma = tested on: MALME-3M melanoma
# MCF7 breast = tested on: MCF7 breast
# MDA-MB-231 breast = tested on: MDA-MB-231 breast
# MDA-MB-435 = tested on: MDA-MB-435
# MDA-MB-468 breast = tested on: MDA-MB-468 breast
# MOLT-4 leukemia = tested on: MOLT-4 leukemia
# NCI-H226 lung = tested on: NCI-H226 lung
# NCI-H23 lung = tested on: NCI-H23 lung
# NCI-H460 lung = tested on: NCI-H460 lung
# NCI-H522 lung = tested on: NCI-H522 lung
# NCI/ADR-RES ovarian = tested on: NCI/ADR-RES ovarian
# OVCAR-3 ovarian = tested on: OVCAR-3 ovarian
# OVCAR-4 ovarian = tested on: OVCAR-4 ovarian
# OVCAR-5 ovarian = tested on: OVCAR-5 ovarian
# OVCAR-8 ovarian = tested on: OVCAR-8 ovarian
# PC-3 prostate = tested on: PC-3 prostate
# RPMI-8226 leukemia = tested on: RPMI-8226 leukemia
# RXF 393 renal = tested on: RXF 393 renal
# SF-268 CNS = tested on: SF-268 CNS
# SF-295 CNS = tested on: SF-295 CNS
# SF-539 CNS = tested on: SF-539 CNS
# SK-MEL-2 melanoma = tested on: SK-MEL-2 melanoma
# SK-MEL-28 melanoma = tested on: SK-MEL-28 melanoma
# SK-MEL-5 melanoma = tested on: SK-MEL-5 melanoma
# SK-OV-3 ovarian = tested on: SK-OV-3 ovarian
# SN12C renal = tested on: SN12C renal
# SNB-19 CNS = tested on: SNB-19 CNS
# SNB-75 CNS = tested on: SNB-75 CNS
# SR leukemia = tested on: SR leukemia
# SW-620 colon = tested on: SW-620 colon
# T-47D breast = tested on: T-47D breast
# TK-10 renal = tested on: TK-10 renal
# U251 CNS = tested on: U251 CNS
# UACC-257 melanoma = tested on: UACC-257 melanoma
# UACC-62 melanoma = tested on: UACC-62 melanoma
# UO-31 renal = tested on: UO-31 renal
structure (smiles),measurement,setting,value
CCN(CC)CCOc1ccc(C(=C(C)c2ccccc2)c2ccc(OCCN(CC)CC)cc2)cc1,GI50,786-0 renal,2.98 µM
same,TGI,786-0 renal,6.77 µM
same,GI50,A498 renal,2.73 µM
same,TGI,A498 renal,5.62 µM
same,GI50,A549 NSCLC,4.54 µM
same,TGI,A549 NSCLC,13.3 µM
same,GI50,ACHN renal,3.63 µM
same,TGI,ACHN renal,6.97 µM
same,GI50,BT-549 breast,4.46 µM
same,TGI,BT-549 breast,8.15 µM
same,GI50,CAKI-1 renal,3.42 µM
same,TGI,CAKI-1 renal,7.07 µM
same,GI50,CCRF-CEM leukemia,2.37 µM
same,TGI,CCRF-CEM leukemia,6.61 µM
same,GI50,COLO 205 colon,3.36 µM
same,TGI,COLO 205 colon,6.89 µM
same,GI50,DU-145 prostate,6 µM
same,TGI,DU-145 prostate,> 23 µM
same,GI50,EKVX NSCLC,5.71 µM
same,TGI,EKVX NSCLC,> 23 µM
same,GI50,HCC-2998 colon,2.91 µM
same,TGI,HCC-2998 colon,6.14 µM
same,GI50,HCT-116 colon,2.39 µM
same,TGI,HCT-116 colon,7.09 µM
same,GI50,HCT-15 colon,2.6 µM
same,TGI,HCT-15 colon,6.85 µM
same,GI50,HL-60(TB) leukemia,4.36 µM
same,TGI,HL-60(TB) leukemia,22.1 µM
same,GI50,HOP-62 NSCLC,3.54 µM
same,TGI,HOP-62 NSCLC,7.31 µM
same,GI50,HOP-92 NSCLC,1.76 µM
same,TGI,HOP-92 NSCLC,6.5 µM
same,GI50,HS 578T breast,4.08 µM
same,TGI,HS 578T breast,10.2 µM
same,GI50,HT29 colon,1.17 µM
same,TGI,HT29 colon,5.6 µM
same,GI50,IGROV1 ovarian,4.27 µM
same,TGI,IGROV1 ovarian,9.79 µM
same,GI50,K-562 leukemia,0.968 µM
same,TGI,K-562 leukemia,> 23 µM
same,GI50,KM12 colon,3.47 µM
same,TGI,KM12 colon,7.22 µM
same,GI50,LOX IMVI melanoma,3.14 µM
same,TGI,LOX IMVI melanoma,6.25 µM
same,GI50,M14 melanoma,3.34 µM
same,TGI,M14 melanoma,7.71 µM
same,GI50,MALME-3M melanoma,3.61 µM
same,TGI,MALME-3M melanoma,6.73 µM
same,GI50,MCF7 breast,0.75 µM
same,TGI,MCF7 breast,4.18 µM
same,GI50,MDA-MB-231 breast,3.04 µM
same,TGI,MDA-MB-231 breast,6.14 µM
same,GI50,MDA-MB-435,3.02 µM
same,TGI,MDA-MB-435,6.48 µM
same,GI50,MDA-MB-468 breast,1.84 µM
same,TGI,MDA-MB-468 breast,5.04 µM
same,GI50,MOLT-4 leukemia,4.71 µM
same,TGI,MOLT-4 leukemia,14.8 µM
same,GI50,NCI-H226 lung,5.92 µM
same,TGI,NCI-H226 lung,> 23 µM
same,GI50,NCI-H23 lung,4.27 µM
same,TGI,NCI-H23 lung,10.7 µM
same,GI50,NCI-H460 lung,3.57 µM
same,TGI,NCI-H460 lung,6.96 µM
same,GI50,NCI-H522 lung,3.63 µM
same,TGI,NCI-H522 lung,7.85 µM
same,GI50,NCI/ADR-RES ovarian,4.71 µM
same,TGI,NCI/ADR-RES ovarian,13.9 µM
same,GI50,OVCAR-3 ovarian,2.96 µM
same,TGI,OVCAR-3 ovarian,7.11 µM
same,GI50,OVCAR-4 ovarian,4.56 µM
same,TGI,OVCAR-4 ovarian,11.7 µM
same,GI50,OVCAR-5 ovarian,3.45 µM
same,TGI,OVCAR-5 ovarian,7.76 µM
same,GI50,OVCAR-8 ovarian,6.12 µM
same,TGI,OVCAR-8 ovarian,18.1 µM
same,GI50,PC-3 prostate,3.59 µM
same,TGI,PC-3 prostate,8.25 µM
same,GI50,RPMI-8226 leukemia,3.51 µM
same,TGI,RPMI-8226 leukemia,8.8 µM
same,GI50,RXF 393 renal,2.47 µM
same,TGI,RXF 393 renal,6.46 µM
same,GI50,SF-268 CNS,3.47 µM
same,TGI,SF-268 CNS,8.81 µM
same,GI50,SF-295 CNS,3.58 µM
same,TGI,SF-295 CNS,7.26 µM
same,GI50,SF-539 CNS,3.35 µM
same,TGI,SF-539 CNS,6.4 µM
same,GI50,SK-MEL-2 melanoma,4.13 µM
same,TGI,SK-MEL-2 melanoma,7.85 µM
same,GI50,SK-MEL-28 melanoma,3.52 µM
same,TGI,SK-MEL-28 melanoma,6.65 µM
same,GI50,SK-MEL-5 melanoma,3.57 µM
same,TGI,SK-MEL-5 melanoma,6.78 µM
same,GI50,SK-OV-3 ovarian,3.69 µM
same,TGI,SK-OV-3 ovarian,7.16 µM
same,GI50,SN12C renal,3.52 µM
same,TGI,SN12C renal,7.22 µM
same,GI50,SNB-19 CNS,4.29 µM
same,TGI,SNB-19 CNS,8.7 µM
same,GI50,SNB-75 CNS,3.07 µM
same,TGI,SNB-75 CNS,6.98 µM
same,GI50,SR leukemia,2.44 µM
same,TGI,SR leukemia,> 23 µM
same,GI50,SW-620 colon,3.1 µM
same,TGI,SW-620 colon,6.31 µM
same,GI50,T-47D breast,2.66 µM
same,TGI,T-47D breast,5.98 µM
same,GI50,TK-10 renal,3.17 µM
same,TGI,TK-10 renal,6.66 µM
same,GI50,U251 CNS,3.69 µM
same,TGI,U251 CNS,7.44 µM
same,GI50,UACC-257 melanoma,4.25 µM
same,TGI,UACC-257 melanoma,8.08 µM
same,GI50,UACC-62 melanoma,3.89 µM
same,TGI,UACC-62 melanoma,7.12 µM
same,GI50,UO-31 renal,2.99 µM
same,TGI,UO-31 renal,5.97 µM
